Test results reported in patent US20250171420A1 (Monte Rosa Therapeutics, Inc., priority 2022, published 2025).

Legend:
[1] = biological target: T1, CK1α (Homo sapiens, UniProt P48729); assay: CK1α NanoBit Assay (HiBiT-tagged CSNK1A1, HEK293 clonal lines); assay type: cell-based; conditions: HEK293 HiBiT-CSNK1A1/LgBiT cells, 24 h incubation
T1 construct: HEK293 clonal lines with CRISPR KI HiBiT tag on CSNK1A1
Method: HEK293 clonal lines with CRISPR KI HiBiT tag on CSNK1A1 and stably expressing LgBiT protein were obtained from Promega (Madison, WI). […] Cells were incubated at 37° C., 5% CO2 for 24 hours and then signal was read on a Pherastar FSX using “LUM plus” optic module.
Data analysis was performed in Scinamic (Scinamic, Cambridge, MA). Luminescence response (R) was calculated by the formula: response=100*(S−N)/(P−N) where S is the signal of the well, N and P the mean negative and positive control values respectively of the same plate.
DC50 data are reported in Table 2 for compounds in Table 1. In Table 2 below, According to the code, A represents a DC50 value of ≤0.1 μM, B represents a DC50 value>0.1 μM and ≤1 μM, C represents an DC50 value>1 μM.

[2] = biological target: CRBN/DDB1 (Homo sapiens, UniProt Q96SW2); assay: HTRF binding assay (displacement of Cy5-thalidomide probe from CRBN/DDB1); conditions: CRBN/DDB1 2.5 nM, Cy5-Thalidomide 100 nM, 30 min; geometric mean; read-out: HTRF_Thali_Disp_DR_geo_IC50
From the text: Binding of test compounds to CRBN/DDB1 was monitored in an HTRF assay using 1-[5-({2-[2-(2-{[2-(2,6-dioxopiperidin-3-yl)-1,3-dioxo-2,3-dihydro-1H-isoindol-4-yl]oxy}acetamido)ethoxy]ethyl}carbamoyl)pentyl]-3,3-dimethyl-2-[(1E,3E)-5-[(2E)-1,3,3-trimethyl-5-sulfo-2,3-dihydro-1H-indol-2-ylidene]penta-1,3-dien-1-yl]-3H-indol-1-ium-5-sulfonate as a fluorescent probe. In this assay, compounds displace the fluorescently labeled thalidomide-based probe bound to CRBN and fluorescence is monitored with increasing compound concentration. Assays were conducted in Greiner white 384 well HiBase plates (Cat. No 784075-25) in 10 μL total volume. A one pot detection solution of CRBN/DDB1 (2.5 nM), anti-His Terbium Cryptate Gold (1×, PerkinElmer Cat. #: 61HI2TLB), and Cy5-Thalidomide (100 nM, Tenova Cat.: T52461) was prepared in 20 mM HEPES, 20 mM NaCl, 0.2 mM TCEP, 0.2 mM EDTA, and 0.005% Tween20 was dispensed to each assay plate. Test compounds were stored in dry, ambient temperatures at 10 mM. A 10-point, 1:3 dilution series was prepared from 10 mM stock concentrations in Echo-compatible LDV plates. 10 nL of each compound dilution series was dispensed into assays wells using an Echo 650 (Labcyte inc. USA). 10 nL of 10 mM lenalidomide (Selleckchem Cat no. S1029) was transferred into the active-control wells for the assay and 10 nL of DMSO was transferred into the negative control wells. The assay was then allowed to incubate for 30 min at ambient temperature after transferring the test compounds. Plate measurements were taken on a Pherastar FSX (BMG Labtech, Germany) using the HTRF Red filter (Ex. 337 nm, em1: 620 nm, em2: 665 nm) (Flashes: 50, Integration time: 60-400 μs, Z-height: 10 mm, Ratio-multiplier: 10,000). Analysis, HTRF ratio and IC50 values were derived using KNIME analytics (KNIME Zurich) transformation and fitting within Collaborative Drug Discovery (Collaborative Drug Discovery USA) using a 4-parameter logistic fit. HTRF ratio calculation was performed using the following formula: […]
where Y represents the HTRF ratio response (as defined previously), X the compound concentration in μM, Ymin the minimum response plateau, Ymax the maximum response plateau, IC50 the concentration of agonist that gives a response half way between Ymin and Ymax and HillSlope the steepness of the family of curves. No fitting model constraints was applied on Ymin, or Ymax whilst IC50>0 and −0.5>HillSlope>−3
Ki values were derived from the geometric mean of the IC50 values using the Cheng-Prusoff transformation:
where [L] represents the concentration of fluorescent probe in μM, Kd the affinity (binding constant) of the fluorescent probe in units of μM and IC50 the concentration of agonist that gives a response halfway between Ymin and Ymax (as described in 1.2.1)
Analysis and IC50 values were derived using KNIME analytics (KNIME, Zurich) transformation and fitting within Collaborative Drug Discovery (Collaborative Drug Discovery, USA) as described in 1.2.1. Ki values were derived from the geometric mean of the IC50 values using the Cheng-Prusoff transformation as described in 2.2.2. Data was visualized in GraphPad Prism 8.1.2 (GraphPad, USA) and reported as mean and standard deviation. Microsoft Office Excel 2012 (Redmond, WA) was used for calculation of mean and standard deviation.
IC50 data are reported in Table 3 for compounds in Table 1. In Table 3 below, According to the code, A represents a IC50 value of ≤0.1 μM, B represents a IC50 value>0.1 μM and ≤1 μM, C represents an IC50 value>1 μM.

T1 sequence (P48729 whole entry): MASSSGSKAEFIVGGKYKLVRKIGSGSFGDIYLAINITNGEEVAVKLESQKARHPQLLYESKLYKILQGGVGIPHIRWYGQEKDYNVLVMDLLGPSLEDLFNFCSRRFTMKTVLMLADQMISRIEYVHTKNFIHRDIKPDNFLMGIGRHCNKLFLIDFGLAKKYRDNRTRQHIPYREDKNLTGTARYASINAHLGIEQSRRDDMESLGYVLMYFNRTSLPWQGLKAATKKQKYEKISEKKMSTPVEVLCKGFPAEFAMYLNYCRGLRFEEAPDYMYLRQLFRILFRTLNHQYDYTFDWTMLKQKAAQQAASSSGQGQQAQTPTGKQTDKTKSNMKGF
T1 sequence (Q96SW2 whole entry, further chain): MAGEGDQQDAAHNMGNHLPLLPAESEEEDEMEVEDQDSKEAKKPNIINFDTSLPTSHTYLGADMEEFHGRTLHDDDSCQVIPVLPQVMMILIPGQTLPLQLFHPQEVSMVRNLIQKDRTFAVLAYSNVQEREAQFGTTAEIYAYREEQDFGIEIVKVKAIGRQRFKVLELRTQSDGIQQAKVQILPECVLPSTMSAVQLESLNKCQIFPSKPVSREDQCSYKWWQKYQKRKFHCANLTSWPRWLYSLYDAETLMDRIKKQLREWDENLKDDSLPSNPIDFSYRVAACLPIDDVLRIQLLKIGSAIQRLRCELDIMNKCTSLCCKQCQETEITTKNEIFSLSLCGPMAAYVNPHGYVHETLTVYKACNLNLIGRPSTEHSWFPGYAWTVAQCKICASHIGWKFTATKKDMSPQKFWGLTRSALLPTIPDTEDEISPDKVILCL
T1 sequence (Q16531 2-1140 partner limits assumed): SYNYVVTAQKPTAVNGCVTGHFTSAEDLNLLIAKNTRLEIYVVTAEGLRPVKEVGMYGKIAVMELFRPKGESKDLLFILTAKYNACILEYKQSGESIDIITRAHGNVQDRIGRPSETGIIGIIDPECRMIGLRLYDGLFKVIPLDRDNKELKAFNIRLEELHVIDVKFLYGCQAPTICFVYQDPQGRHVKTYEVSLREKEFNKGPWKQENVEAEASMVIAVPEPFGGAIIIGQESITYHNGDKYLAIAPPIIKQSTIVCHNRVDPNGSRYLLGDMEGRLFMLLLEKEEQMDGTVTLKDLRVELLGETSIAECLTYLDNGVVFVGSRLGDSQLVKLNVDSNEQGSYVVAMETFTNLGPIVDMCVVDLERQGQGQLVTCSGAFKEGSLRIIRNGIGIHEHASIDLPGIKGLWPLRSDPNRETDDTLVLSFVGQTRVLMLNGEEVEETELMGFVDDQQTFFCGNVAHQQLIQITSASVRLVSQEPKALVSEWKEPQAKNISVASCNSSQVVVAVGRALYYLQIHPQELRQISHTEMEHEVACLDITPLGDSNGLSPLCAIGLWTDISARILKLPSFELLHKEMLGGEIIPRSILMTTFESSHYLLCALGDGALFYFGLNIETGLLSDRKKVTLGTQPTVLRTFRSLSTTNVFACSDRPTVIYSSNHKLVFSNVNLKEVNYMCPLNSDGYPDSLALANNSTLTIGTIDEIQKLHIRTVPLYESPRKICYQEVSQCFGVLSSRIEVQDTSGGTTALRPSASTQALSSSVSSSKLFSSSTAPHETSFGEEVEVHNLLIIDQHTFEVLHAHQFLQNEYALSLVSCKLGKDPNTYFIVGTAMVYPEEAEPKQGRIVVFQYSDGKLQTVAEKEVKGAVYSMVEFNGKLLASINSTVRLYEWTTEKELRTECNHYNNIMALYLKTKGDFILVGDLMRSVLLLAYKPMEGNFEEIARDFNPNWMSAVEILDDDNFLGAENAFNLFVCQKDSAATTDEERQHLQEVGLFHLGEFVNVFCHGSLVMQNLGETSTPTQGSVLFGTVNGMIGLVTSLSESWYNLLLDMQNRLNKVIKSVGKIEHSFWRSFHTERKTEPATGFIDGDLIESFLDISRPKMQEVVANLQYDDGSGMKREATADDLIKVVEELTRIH
CRBN/DDB1, sequence (Q96SW2 whole entry, species assumed): as the sequence (Q96SW2 whole entry, further chain) above
CRBN/DDB1, sequence (Q16531 whole entry partner, species assumed): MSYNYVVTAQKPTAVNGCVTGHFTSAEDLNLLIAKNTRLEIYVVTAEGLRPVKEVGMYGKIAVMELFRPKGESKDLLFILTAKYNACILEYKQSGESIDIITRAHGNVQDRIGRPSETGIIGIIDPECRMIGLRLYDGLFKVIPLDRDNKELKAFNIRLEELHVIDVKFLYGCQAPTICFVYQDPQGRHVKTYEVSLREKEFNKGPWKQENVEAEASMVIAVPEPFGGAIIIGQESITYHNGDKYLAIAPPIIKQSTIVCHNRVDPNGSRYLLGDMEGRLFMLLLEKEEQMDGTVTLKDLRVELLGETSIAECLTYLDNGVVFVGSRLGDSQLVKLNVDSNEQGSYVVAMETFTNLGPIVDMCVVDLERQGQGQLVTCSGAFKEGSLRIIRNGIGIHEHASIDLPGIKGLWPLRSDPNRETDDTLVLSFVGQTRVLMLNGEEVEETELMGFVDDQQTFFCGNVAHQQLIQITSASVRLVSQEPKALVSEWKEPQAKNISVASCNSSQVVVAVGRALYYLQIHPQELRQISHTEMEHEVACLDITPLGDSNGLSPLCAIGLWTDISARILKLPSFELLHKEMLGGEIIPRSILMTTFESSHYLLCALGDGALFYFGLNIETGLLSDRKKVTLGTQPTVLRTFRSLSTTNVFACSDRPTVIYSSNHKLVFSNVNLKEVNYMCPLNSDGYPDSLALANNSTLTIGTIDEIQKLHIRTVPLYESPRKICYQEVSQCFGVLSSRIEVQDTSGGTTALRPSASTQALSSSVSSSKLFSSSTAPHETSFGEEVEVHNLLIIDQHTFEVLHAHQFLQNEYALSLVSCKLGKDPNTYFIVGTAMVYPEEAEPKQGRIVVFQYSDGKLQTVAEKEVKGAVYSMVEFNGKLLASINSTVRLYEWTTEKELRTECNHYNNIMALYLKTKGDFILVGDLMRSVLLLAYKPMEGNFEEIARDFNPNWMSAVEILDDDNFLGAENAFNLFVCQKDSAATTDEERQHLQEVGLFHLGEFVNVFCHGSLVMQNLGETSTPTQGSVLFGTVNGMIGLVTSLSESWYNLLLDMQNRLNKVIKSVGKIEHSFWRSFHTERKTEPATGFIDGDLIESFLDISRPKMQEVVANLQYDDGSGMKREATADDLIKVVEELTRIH

## O=C1CC[C@@H](N2Cc3cc(NC(=O)N4c5ccccc5C[C@H]4C(F)(F)F)ccc3C2=O)C(=O)N1 (single isomer, unassigned) [Compound 359]
[1]
  DC50: < 0.1 µM
[2]
  IC50: > 1000 nM

## O=C1CC[C@H](N2Cc3cc(NC(=O)N4c5ccccc5C[C@@H]4C(F)(F)F)ccc3C2=O)C(=O)N1 (single isomer, unassigned) [Compound 362]
[1]
  DC50: < 0.1 µM
[2]
  IC50: 100 to 1000 nM

## O=C1CCC(N2Cc3cc(NC(=O)N4CCc5ccncc54)ccc3C2=O)C(=O)N1 (stereo not shown) [Compound 105, N-(2-(2,6-dioxopiperidin-3-yl)-1-oxoisoindolin-5-yl)-2,3-dihydro-1H-pyrrolo[2,3-c]pyridine-1-carboxamide]
[1]
  DC50: < 0.1 µM
[2]
  IC50: 100 to 1000 nM

## CC1(c2ccccc2)CN(C(=O)Nc2ccc3c(c2)CN(C2CCC(=O)NC2=O)C3=O)C1 (stereo not shown) [Compound 109, N-(2-(2,6-dioxopiperidin-3-yl)-1-oxoisoindolin-5-yl)-3-methyl-3-phenylazetidine-1-carboxamide]
[1]
  DC50: 0.1 to 1 µM
[2]
  IC50: 100 to 1000 nM

## O=C1CCC(N2Cc3cc(NC(=O)N4CC(c5ccccc5)C4)ccc3C2=O)C(=O)N1 (stereo not shown) [Compound 111, N-(2-(2,6-dioxopiperidin-3-yl)-1-oxoisoindolin-5-yl)-3-phenylazetidine-1-carboxamide]
[1]
  DC50: 0.1 to 1 µM
[2]
  IC50: 100 to 1000 nM

## O=C1CCC(N2Cc3cc(NC(=O)N4CCc5cccnc54)ccc3C2=O)C(=O)N1 (stereo not shown) [Compound 112, N-(2-(2,6-dioxopiperidin-3-yl)-1-oxoisoindolin-5-yl)-2,3-dihydro-1H-pyrrolo[2,3-b]pyridine-1-carboxamide]
[1]
  DC50: 0.1 to 1 µM
[2]
  IC50: > 1000 nM

## N#Cc1ccc2c(c1)N(C(=O)Nc1ccc3c(c1)CN(C1CCC(=O)NC1=O)C3=O)CC2 (stereo not shown) [Compound 115, 6-cyano-N-(2-(2,6-dioxopiperidin-3-yl)-1-oxoisoindolin-5-yl)indoline-1-carboxamide]
[1]
  DC50: < 0.1 µM
[2]
  IC50: 100 to 1000 nM

## O=C1CCC(N2Cc3cc(NC(=O)N4CCc5cccc(C(F)(F)F)c54)ccc3C2=O)C(=O)N1 (stereo not shown) [Compound 117, N-(2-(2,6-dioxopiperidin-3-yl)-1-oxoisoindolin-5-yl)-7-(trifluoromethyl)indoline-1-carboxamide]
[1]
  DC50: 0.1 to 1 µM
[2]
  IC50: 100 to 1000 nM

## CC1c2ccccc2N(C(=O)Nc2ccc3c(c2)CN(C2CCC(=O)NC2=O)C3=O)C1C (stereo not shown) [Compound 123, N-(2-(2,6-dioxopiperidin-3-yl)-1-oxoisoindolin-5-yl)-2,3-dimethylindoline-1-carboxamide]
[1]
  DC50: < 0.1 µM
[2]
  IC50: 100 to 1000 nM

## CC1(C)Cc2ccccc2N1C(=O)Nc1ccc2c(c1)CN(C1CCC(=O)NC1=O)C2=O (stereo not shown) [Compound 132]
[1]
  DC50: < 0.1 µM
[2]
  IC50: 100 to 1000 nM

## N#Cc1cccc2c1N(C(=O)Nc1ccc3c(c1)CN(C1CCC(=O)NC1=O)C3=O)CC2 (stereo not shown) [Compound 147, 7-cyano-N-(2-(2,6-dioxopiperidin-3-yl)-1-oxoisoindolin-5-yl)indoline-1-carboxamide]
[1]
  DC50: > 1 µM
[2]
  IC50: 100 to 1000 nM

## O=C1CCC(N2Cc3cc(NC(=O)N4CCc5cccc(Cl)c54)ccc3C2=O)C(=O)N1 (stereo not shown) [Compound 152, 7-chloro-N-(2-(2,6-dioxopiperidin-3-yl)-1-oxoisoindolin-5-yl) indoline-1-carboxamide]
[1]
  DC50: < 0.1 µM
[2]
  IC50: 100 to 1000 nM

## CCc1cccc2c1N(C(=O)Nc1ccc3c(c1)CN(C1CCC(=O)NC1=O)C3=O)CC2 (stereo not shown) [Compound 162, N-(2-(2,6-dioxopiperidin-3-yl)-1-oxoisoindolin-5-yl)-7-ethylindoline-1-carboxamide]
[1]
  DC50: < 0.1 µM
[2]
  IC50: 100 to 1000 nM

## O=C1CCC(N2Cc3cc(NC(=O)N4CCc5cccc(F)c54)ccc3C2=O)C(=O)N1 (stereo not shown) [Compound 163, N-(2-(2,6-dioxopiperidin-3-yl)-1-oxoisoindolin-5-yl)-7-fluoroindoline-1-carboxamide]
[1]
  DC50: < 0.1 µM
[2]
  IC50: 100 to 1000 nM

## O=C1CCC(N2Cc3cc(NC(=O)N4CCCC4c4ccccc4)ccc3C2=O)C(=O)N1 (stereo not shown) [Compound 264]
[1]
  DC50: < 0.1 µM

## Cc1cccc(N2CCN(C(=O)Nc3ccc4c(c3)CN(C3CCC(=O)NC3=O)C4=O)CC2)c1 (stereo not shown) [Compound 265]
[1]
  DC50: 0.1 to 1 µM

## O=C1CCC(N2Cc3cc(NC(=O)N4CCN(c5ccncn5)CC4)ccc3C2=O)C(=O)N1 (stereo not shown) [Compound 266]
[1]
  DC50: > 1 µM

## Cn1ccc(C2CCCN(C(=O)Nc3ccc4c(c3)CN(C3CCC(=O)NC3=O)C4=O)C2)n1 (stereo not shown) [Compound 267]
[1]
  DC50: 0.1 to 1 µM

## O=C1CCC(N2Cc3cc(NC(=O)N4CC(c5cccc(Cl)c5)C4)ccc3C2=O)C(=O)N1 (stereo not shown) [Compound 268]
[1]
  DC50: < 0.1 µM

## O=C1CCC(N2Cc3cc(NC(=O)N4CC(c5ccc(F)cc5)C4)ccc3C2=O)C(=O)N1 (stereo not shown) [Compound 269]
[1]
  DC50: < 0.1 µM

## O=C1CCC(N2Cc3cc(NC(=O)N4CCCC4c4ccccn4)ccc3C2=O)C(=O)N1 (stereo not shown) [Compound 270]
[1]
  DC50: 0.1 to 1 µM

## O=C1CCC(N2Cc3cc(NC(=O)N4CCN(c5ccccn5)CC4)ccc3C2=O)C(=O)N1 (stereo not shown) [Compound 271]
[1]
  DC50: 0.1 to 1 µM

## O=C1CCC(N2Cc3cc(NC(=O)N4CCN(c5ncccn5)CC4)ccc3C2=O)C(=O)N1 (stereo not shown) [Compound 272]
[1]
  DC50: 0.1 to 1 µM

## C[C@@H]1[C@H]2CN(C(=O)Nc3ccc4c(c3)CN(C3CCC(=O)NC3=O)C4=O)C[C@@H]12 (stereo partly shown) [Compound 273]
[1]
  DC50: < 0.1 µM

## O=C1CCC(N2Cc3cc(NC(=O)N4CCC5(CC5)C4)ccc3C2=O)C(=O)N1 (stereo not shown) [Compound 274]
[1]
  DC50: 0.1 to 1 µM

## C[C@@H]1CCN(C(=O)Nc2ccc3c(c2)CN(C2CCC(=O)NC2=O)C3=O)[C@H](C)C1 (stereo partly shown) [Compound 275]
[1]
  DC50: > 1 µM

## O=C1CCC(N2Cc3cc(NC(=O)N4CCCC5CC54)ccc3C2=O)C(=O)N1 (stereo not shown) [Compound 276]
[1]
  DC50: 0.1 to 1 µM

## O=C1CCC(N2Cc3cc(NC(=O)N4CCC(C5CC5)C4)ccc3C2=O)C(=O)N1 (stereo not shown) [Compound 277]
[1]
  DC50: < 0.1 µM

## O=C1CCC(N2Cc3cc(NC(=O)N4CCC5(CCC5)C4)ccc3C2=O)C(=O)N1 (stereo not shown) [Compound 278]
[1]
  DC50: < 0.1 µM

## C[C@H]1CCCN(C(=O)Nc2ccc3c(c2)CN(C2CCC(=O)NC2=O)C3=O)C1 (stereo partly shown) [Compound 279]
[1]
  DC50: 0.1 to 1 µM

## CC1CCCN(C(=O)Nc2ccc3c(c2)CN(C2CCC(=O)NC2=O)C3=O)C1 (stereo not shown) [Compound 280]
[1]
  DC50: 0.1 to 1 µM

## CC1CCN(C(=O)Nc2ccc3c(c2)CN(C2CCC(=O)NC2=O)C3=O)CC1 (stereo not shown) [Compound 281]
[1]
  DC50: 0.1 to 1 µM

## CC1CCCCN1C(=O)Nc1ccc2c(c1)CN(C1CCC(=O)NC1=O)C2=O (stereo not shown) [Compound 282]
[1]
  DC50: 0.1 to 1 µM

## O=C1CCC(N2Cc3cc(NC(=O)N4c5cccc(C(F)(F)F)c5CC45COC5)ccc3C2=O)C(=O)N1 (stereo not shown) [Compound 296, N-(2-(2,6-dioxopiperidin-3-yl)-1-oxoisoindolin-5-yl)-4-(trifluoromethyl)spiro[indoline-2,3′-oxetane]-1-carboxamide]
[1]
  DC50: < 0.1 µM

## C[C@@H]1Cc2cc(F)ccc2N1C(=O)Nc1ccc2c(c1)CN(C1CCC(=O)NC1=O)C2=O (stereo partly drawn) [Compound 363, (2R)—N-(2-(2,6-dioxopiperidin-3-yl)-1-oxoisoindolin-5-yl)-5-fluoro-2-methylindoline-1-carboxamide]
[1]
  DC50: < 0.1 µM
